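Cells were grown in 96-well plates and exposed to each compound for 48 hours at five concentrations; endpoints were interpolated linearly between bracketing concentrations, or set to the highest concentration if not reached. Here, GI50 denotes the concentration required for 50% inhibition of growth. At the TGI there is no net growth.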
Key:
Test in all cases: NCI tumour cell line growth inhibition, 48 h
786-0 renal = test system: 786-0 renal
SNB-75 CNS = test system: SNB-75 CNS
HCT-116 colon = test system: HCT-116 colon
COLO 205 colon = test system: COLO 205 colon
NCI/ADR-RES ovarian = test system: NCI/ADR-RES ovarian
BT-549 breast = test system: BT-549 breast
CCRF-CEM leukemia = test system: CCRF-CEM leukemia
OVCAR-5 ovarian = test system: OVCAR-5 ovarian
OVCAR-4 ovarian = test system: OVCAR-4 ovarian
OVCAR-8 ovarian = test system: OVCAR-8 ovarian
SK-MEL-5 melanoma = test system: SK-MEL-5 melanoma
HCC-2998 colon = test system: HCC-2998 colon
OVCAR-3 ovarian = test system: OVCAR-3 ovarian
NCI-H226 lung = test system: NCI-H226 lung
A549 NSCLC = test system: A549 NSCLC
SNB-19 CNS = test system: SNB-19 CNS
NCI-H460 lung = test system: NCI-H460 lung
CAKI-1 renal = test system: CAKI-1 renal
SF-295 CNS = test system: SF-295 CNS
RPMI-8226 leukemia = test system: RPMI-8226 leukemia
MCF7 breast = test system: MCF7 breast
SF-539 CNS = test system: SF-539 CNS
NCI-H522 lung = test system: NCI-H522 lung
LOX IMVI melanoma = test system: LOX IMVI melanoma
T-47D breast = test system: T-47D breast
SK-OV-3 ovarian = test system: SK-OV-3 ovarian
SN12C renal = test system: SN12C renal
UACC-257 melanoma = test system: UACC-257 melanoma
IGROV1 ovarian = test system: IGROV1 ovarian
SK-MEL-28 melanoma = test system: SK-MEL-28 melanoma
KM12 colon = test system: KM12 colon
SK-MEL-2 melanoma = test system: SK-MEL-2 melanoma
UACC-62 melanoma = test system: UACC-62 melanoma
HOP-62 NSCLC = test system: HOP-62 NSCLC
SF-268 CNS = test system: SF-268 CNS
M14 melanoma = test system: M14 melanoma
HT29 colon = test system: HT29 colon
MDA-MB-435 = test system: MDA-MB-435
MALME-3M melanoma = test system: MALME-3M melanoma
NCI-H23 lung = test system: NCI-H23 lung
RXF 393 renal = test system: RXF 393 renal
TK-10 renal = test system: TK-10 renal
ACHN renal = test system: ACHN renal
UO-31 renal = test system: UO-31 renal
PC-3 prostate = test system: PC-3 prostate
SR leukemia = test system: SR leukemia
K-562 leukemia = test system: K-562 leukemia
A498 renal = test system: A498 renal
HCT-15 colon = test system: HCT-15 colon
EKVX NSCLC = test system: EKVX NSCLC
HOP-92 NSCLC = test system: HOP-92 NSCLC
MDA-MB-231 breast = test system: MDA-MB-231 breast
DU-145 prostate = test system: DU-145 prostate
HS 578T breast = test system: HS 578T breast
U251 CNS = test system: U251 CNS
MOLT-4 leukemia = test system: MOLT-4 leukemia
SW-620 colon = test system: SW-620 colon
HL-60(TB) leukemia = test system: HL-60(TB) leukemia

## O=c1oc2ccc(Cl)cc2c(=O)n1-c1ccc(F)cc1F
786-0 renal
  GI50: 3070 nM
  TGI: 10500 nM
SNB-75 CNS
  GI50: 1320 nM
  TGI: 4200 nM
HCT-116 colon
  GI50: 2530 nM
  TGI: 10400 nM
COLO 205 colon
  GI50: 7920 nM
  TGI: 23900 nM
NCI/ADR-RES ovarian
  GI50: 2630 nM
  TGI: 9500 nM
BT-549 breast
  GI50: 1090 nM
  TGI: 5890 nM
CCRF-CEM leukemia
  GI50: 3320 nM
  TGI: 18100 nM
OVCAR-5 ovarian
  GI50: 3430 nM
  TGI: 97500 nM
OVCAR-4 ovarian
  GI50: 1110 nM
  TGI: > 100000 nM
OVCAR-8 ovarian
  GI50: 2660 nM
  TGI: > 100000 nM
SK-MEL-5 melanoma
  GI50: 1110 nM
  TGI: 2460 nM
HCC-2998 colon
  GI50: 2890 nM
  TGI: 8720 nM
OVCAR-3 ovarian
  GI50: 2240 nM
  TGI: 18200 nM
NCI-H226 lung
  GI50: 1410 nM
  TGI: 5870 nM
A549 NSCLC
  GI50: 2080 nM
  TGI: > 100000 nM
SNB-19 CNS
  GI50: 2270 nM
  TGI: > 100000 nM
NCI-H460 lung
  GI50: 2200 nM
  TGI: 11500 nM
CAKI-1 renal
  GI50: 1450 nM
  TGI: 5600 nM
SF-295 CNS
  GI50: 1760 nM
  TGI: 3550 nM
RPMI-8226 leukemia
  GI50: 994 nM
  TGI: 4180 nM
MCF7 breast
  GI50: 2420 nM
  TGI: > 100000 nM
SF-539 CNS
  GI50: 1680 nM
  TGI: 8670 nM
NCI-H522 lung
  GI50: 1400 nM
  TGI: 10300 nM
LOX IMVI melanoma
  GI50: 2400 nM
  TGI: 12100 nM
T-47D breast
  GI50: 1080 nM
  TGI: 5270 nM
SK-OV-3 ovarian
  GI50: 1120 nM
  TGI: 5430 nM
SN12C renal
  GI50: 1670 nM
  TGI: 8780 nM
UACC-257 melanoma
  GI50: 450 nM
  TGI: 4080 nM
IGROV1 ovarian
  GI50: 1740 nM
  TGI: > 100000 nM
SK-MEL-28 melanoma
  GI50: 1520 nM
  TGI: 10500 nM
KM12 colon
  GI50: 2720 nM
  TGI: 10200 nM
SK-MEL-2 melanoma
  GI50: 1130 nM
  TGI: 3970 nM
UACC-62 melanoma
  GI50: 608 nM
  TGI: 3840 nM
HOP-62 NSCLC
  GI50: 1490 nM
  TGI: 4840 nM
SF-268 CNS
  GI50: 2210 nM
  TGI: 15800 nM
M14 melanoma
  GI50: 558 nM
  TGI: 5030 nM
HT29 colon
  GI50: 3520 nM
  TGI: 38800 nM
MDA-MB-435
  GI50: 1640 nM
  TGI: 7730 nM
MALME-3M melanoma
  GI50: 1110 nM
  TGI: 5380 nM
NCI-H23 lung
  GI50: 1870 nM
  TGI: 7240 nM
RXF 393 renal
  GI50: 1760 nM
  TGI: 5720 nM
TK-10 renal
  GI50: 5550 nM
  TGI: 68200 nM
ACHN renal
  GI50: 2140 nM
  TGI: 6080 nM
UO-31 renal
  GI50: 1220 nM
  TGI: 7970 nM
PC-3 prostate
  GI50: 1070 nM
  TGI: 4030 nM
SR leukemia
  GI50: 1040 nM
  TGI: 9750 nM
K-562 leukemia
  GI50: 2030 nM
  TGI: > 100000 nM
A498 renal
  GI50: 372 nM
  TGI: 1680 nM
HCT-15 colon
  GI50: 2320 nM
  TGI: 13500 nM
EKVX NSCLC
  GI50: 1980 nM
  TGI: 8040 nM
HOP-92 NSCLC
  TGI: 176 nM
MDA-MB-231 breast
  GI50: 2060 nM
  TGI: 8200 nM
DU-145 prostate
  GI50: 3750 nM
  TGI: 46600 nM
HS 578T breast
  GI50: 1550 nM
  TGI: 7660 nM
U251 CNS
  GI50: 1870 nM
  TGI: 36700 nM
MOLT-4 leukemia
  GI50: 2330 nM
  TGI: 5590 nM
SW-620 colon
  GI50: 3120 nM
  TGI: 16900 nM
HL-60(TB) leukemia
  GI50: 1880 nM
  TGI: 4930 nM

## COc1cc(NS(C)(=O)=O)ccc1Cc1c2ccccc2nc2ccccc12
786-0 renal
  GI50: 139 nM
  TGI: 640 nM
SNB-75 CNS
  GI50: 188 nM
  TGI: 1540 nM
HCT-116 colon
  GI50: 135 nM
  TGI: 1930 nM
COLO 205 colon
  GI50: 81.2 nM
  TGI: 2400 nM
NCI/ADR-RES ovarian
  GI50: 1440 nM
  TGI: 10000 nM
BT-549 breast
  GI50: 267 nM
  TGI: 1970 nM
CCRF-CEM leukemia
  GI50: 42 nM
  TGI: 751 nM
OVCAR-5 ovarian
  GI50: 1030 nM
  TGI: 4170 nM
OVCAR-4 ovarian
  GI50: 1250 nM
  TGI: 2520 nM
OVCAR-8 ovarian
  GI50: 146 nM
  TGI: 1370 nM
SK-MEL-5 melanoma
  GI50: 121 nM
  TGI: 1110 nM
HCC-2998 colon
  GI50: 433 nM
  TGI: 2350 nM
OVCAR-3 ovarian
  GI50: 785 nM
  TGI: 2060 nM
NCI-H226 lung
  GI50: 107 nM
  TGI: 462 nM
A549 NSCLC
  GI50: 16.4 nM
  TGI: 1060 nM
SNB-19 CNS
  GI50: 134 nM
  TGI: 3350 nM
NCI-H460 lung
  GI50: < 12 nM
  TGI: 1060 nM
CAKI-1 renal
  GI50: 139 nM
  TGI: 1530 nM
SF-295 CNS
  GI50: 47.5 nM
  TGI: 1220 nM
RPMI-8226 leukemia
  GI50: 377 nM
  TGI: 3280 nM
MCF7 breast
  GI50: 51.7 nM
  TGI: 5000 nM
SF-539 CNS
  GI50: 118 nM
  TGI: 1150 nM
NCI-H522 lung
  GI50: 71.2 nM
  TGI: 961 nM
LOX IMVI melanoma
  GI50: 79.3 nM
  TGI: 1480 nM
T-47D breast
  GI50: 53.5 nM
  TGI: 1370 nM
SK-OV-3 ovarian
  GI50: 115 nM
  TGI: 1020 nM
SN12C renal
  GI50: 74.2 nM
  TGI: 1170 nM
UACC-257 melanoma
  GI50: 493 nM
  TGI: 2670 nM
IGROV1 ovarian
  GI50: 414 nM
  TGI: 2880 nM
SK-MEL-28 melanoma
  GI50: 672 nM
  TGI: 2360 nM
KM12 colon
  GI50: 396 nM
  TGI: 2010 nM
SK-MEL-2 melanoma
  GI50: 1430 nM
  TGI: 3200 nM
UACC-62 melanoma
  GI50: 101 nM
  TGI: 1670 nM
HOP-62 NSCLC
  GI50: 59 nM
  TGI: 368 nM
SF-268 CNS
  GI50: 179 nM
  TGI: 6030 nM
M14 melanoma
  GI50: 158 nM
  TGI: 1430 nM
HT29 colon
  GI50: 300 nM
  TGI: 1820 nM
MDA-MB-435
  GI50: 1230 nM
  TGI: 11300 nM
MALME-3M melanoma
  GI50: 192 nM
  TGI: 1650 nM
NCI-H23 lung
  GI50: 137 nM
  TGI: 1480 nM
RXF 393 renal
  GI50: 396 nM
  TGI: 2060 nM
TK-10 renal
  GI50: 228 nM
  TGI: 1450 nM
ACHN renal
  GI50: 46.3 nM
  TGI: 1110 nM
UO-31 renal
  GI50: 126 nM
  TGI: 1020 nM
PC-3 prostate
  GI50: 461 nM
  TGI: 15600 nM
SR leukemia
  TGI: 139 nM
K-562 leukemia
  GI50: 307 nM
  TGI: 2400 nM
A498 renal
  GI50: 135 nM
  TGI: 1150 nM
HCT-15 colon
  GI50: 371 nM
  TGI: 2760 nM
EKVX NSCLC
  GI50: 993 nM
  TGI: 4240 nM
HOP-92 NSCLC
  GI50: 129 nM
  TGI: 1140 nM
MDA-MB-231 breast
  GI50: 1280 nM
  TGI: 2780 nM
DU-145 prostate
  GI50: 57.1 nM
  TGI: 649 nM
HS 578T breast
  GI50: 1720 nM
  TGI: 8170 nM
U251 CNS
  GI50: 136 nM
  TGI: 1210 nM
MOLT-4 leukemia
  TGI: 26.5 nM
SW-620 colon
  GI50: 121 nM
  TGI: 2340 nM
HL-60(TB) leukemia
  GI50: 25.8 nM
  TGI: 141 nM

Reference: PubChem BioAssay (NCI)
